# Measured values taken from publication PMC8253220, “Molecular design, synthesis and in vitro biological evaluation of thienopyrimidine–hydroxamic acids as chimeric kinase HDAC inhibitors: a challenging approach to combat cancer” (Journal of Enzyme Inhibition and Medicinal Chemistry, 2021).
# Several values for one entry are separate records, joined by “and”; a condition that tells them apart may be missing. Identical values can stand only once.
# Tests used:
# Experiment in all cases: NCI one-dose screen
# Format in all cases: cell-based, human
# UO-31 = details: Renal UO-31, 10 µM single dose
# Outline: (§1)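 At 10 μM, a single concentration, compounds were evaluated for antiproliferative effect in the NCI 60-line screen, with growth expressed relative to untreated control cells.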
# SK-MEL-28 = details: Melanoma SK-MEL-28, 10 µM single dose
# Outline: as §1
# SF-295 = details: CNS SF-295, 10 µM single dose
# Outline: as §1
# HS 578T = details: Breast HS 578T, 10 µM single dose
# Outline: as §1
# NCI-H322M = details: NSCLC NCI-H322M, 10 µM single dose
# Outline: as §1
# HOP-92 = details: NSCLC HOP-92, 10 µM single dose
# Outline: as §1
# M14 = details: Melanoma M14, 10 µM single dose
# Outline: as §1
# 786-0 = details: Renal 786-0, 10 µM single dose
# Outline: as §1
# UACC-62 = details: Melanoma UACC-62, 10 µM single dose
# Outline: as §1
# NCI-H522 = details: NSCLC NCI-H522, 10 µM single dose
# Outline: as §1
# SNB-19 = details: CNS SNB-19, 10 µM single dose
# Outline: as §1
# KM12 = details: Colon KM12, 10 µM single dose
# Outline: (§2)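 Single 10 μM dose, NCI-60 panel; read-out = % growth vs untreated controls → % inhibition.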
# HCT-116 = details: Colon HCT-116, 10 µM single dose
# Outline: as §1
# TK-10 = details: Renal TK-10, 10 µM single dose
# Outline: as §1
# OVCAR-4 = details: Ovarian OVCAR-4, 10 µM single dose
# Outline: as §1
# MOLT-4 = details: Leukemia MOLT-4, 10 µM single dose
# Outline: as §2
# SF-539 = details: CNS SF-539, 10 µM single dose
# Outline: as §2
# DU-145 = details: Prostate DU-145, 10 µM single dose
# Outline: as §1
# CAKI-1 = details: Renal CAKI-1, 10 µM single dose
# Outline: as §1
# SNB-75 = details: CNS SNB-75, 10 µM single dose
# Outline: as §1
# HL-60(TB) = details: Leukemia HL-60(TB), 10 µM single dose
# Outline: as §1
# OVCAR-8 = details: Ovarian OVCAR-8, 10 µM single dose
# Outline: as §1
# NCI/ADR-RES = details: Ovarian NCI/ADR-RES, 10 µM single dose
# Outline: as §1
# BT-549 = details: Breast BT-549, 10 µM single dose
# Outline: as §1
# NCI-H23 = details: NSCLC NCI-H23, 10 µM single dose
# Outline: as §2
# SF-268 = details: CNS SF-268, 10 µM single dose
# Outline: as §2
# SR = details: Leukemia SR, 10 µM single dose
# Outline: as §1
# CCRF-CEM = details: Leukemia CCRF-CEM, 10 µM single dose
# Outline: as §1
# OVCAR-3 = details: Ovarian OVCAR-3, 10 µM single dose
# Outline: as §1
# MDA-MB-435 = details: Melanoma MDA-MB-435, 10 µM single dose
# Outline: as §1
# HCT-15 = details: Colon HCT-15, 10 µM single dose
# Outline: as §1
# SK-MEL-2 = details: Melanoma SK-MEL-2, 10 µM single dose
# Outline: as §1
# U251 = details: CNS U251, 10 µM single dose
# Outline: as §1
# RPMI-8226 = details: Leukemia RPMI-8226, 10 µM single dose
# Outline: as §1
# HT29 = details: Colon HT29, 10 µM single dose
# Outline: as §1
# A549/ATCC = details: NSCLC A549/ATCC, 10 µM single dose
# Outline: as §1
SMILES,Growth Percent (UO-31),Growth Percent (SK-MEL-28),Growth Percent (SF-295),Growth Percent (HS 578T),Growth Percent (NCI-H322M),Growth Percent (HOP-92),Growth Percent (M14),Growth Percent (786-0),Growth Percent (UACC-62),Growth Percent (NCI-H522),Growth Percent (SNB-19),Growth Percent (KM12),Growth Percent (HCT-116),Growth Percent (TK-10),Growth Percent (OVCAR-4),Growth Percent (MOLT-4),Growth Percent (SF-539),Growth Percent (DU-145),Growth Percent (CAKI-1),Growth Percent (SNB-75),other results
"Cc1c(C(=O)NCCC(=O)NO)sc2ncnc(Nc3ccccc3)c12 [Compound 19b, N-(3-(hydroxyamino)-3-oxopropyl)-5-methyl-4-(phenylamino)thieno[2,3-d]pyrimidine-6-carboxamide]",86.4% and 86.41%,107.9% and 107.91%,91.8% and 91.88%,103.8% and 103.85%,99.0% and 99.06%,102.5%,106.1% and 106.19%,102.5% and 102.58%,95.6% and 95.69%,90.5% and 90.58%,99.8% and 99.82%,101.9% and 101.98%,105.6% and 105.69%,108.2% and 108.29%,104.9% and 104.94%,107.4% and 107.47%,93.6% and 93.63%,108.0% and 108.08%,96.2% and 96.21%,81.4% and 81.46%,Growth Percent (HL-60(TB)): 103.7%; Growth Percent (OVCAR-8): 99.4% and 99.45%; Growth Percent (NCI/ADR-RES): 97.2% and 97.26%; Growth Percent (BT-549): 109.1% and 109.16%; Growth Percent (NCI-H23): 95.7% and 95.71%; Growth Percent (SF-268): 97.0%; Growth Percent (SR): 104.5% and 104.58%; Growth Percent (CCRF-CEM): 101.13%; Growth Percent (OVCAR-3): 115.3% and 115.34%; Growth Percent (MDA-MB-435): 102.9% and 102.98%; Growth Percent (HCT-15): 95.0% and 95.07%; Growth Percent (SK-MEL-2): 108.6% and 108.65%; Growth Percent (U251): 101.5% and 101.54%; Growth Percent (RPMI-8226): 103.3% and 103.33%; Growth Percent (HT29): 104.9% and 104.96%; Growth Percent (A549/ATCC): 98.3%
"COc1cccc(NC(=O)Nc2ccc(Nc3ncnc4sc(C(=O)NCCC(=O)NO)c(C)c34)cc2)c1 [Compound 11b, 1–(4-(6-((3-(hydroxyamino)-3-oxopropyl)carbamoyl)-5-methylthieno[2,3-d]pyrimidin-4-ylamino)phenyl)-3–(3-methoxyphenyl)urea]",83.4% and 83.44%,105.3%,100.0% and 100.08%,100.7%,100.7% and 100.74%,119.1% and 119.18%,92.9% and 92.95%,101.3% and 101.34%,95.3% and 95.33%,94.6% and 94.61%,98.1%,99.5% and 99.57%,101.6% and 101.62%,109.9% and 109.96%,91.0% and 91.01%,107.2% and 107.22%,98.0% and 98.07%,102.0% and 102.08%,95.6% and 95.62%,83.7% and 83.79%,Growth Percent (HL-60(TB)): 103.9% and 103.99%; Growth Percent (OVCAR-8): 99.2% and 99.26%; Growth Percent (NCI/ADR-RES): 102.4% and 102.42%; Growth Percent (BT-549): 96.1% and 96.14%; Growth Percent (NCI-H23): 96.6% and 96.67%; Growth Percent (SF-268): 94.3% and 94.39%; Growth Percent (SR): 112.2% and 112.27%; Growth Percent (CCRF-CEM): 105.0% and 105.08%; Growth Percent (OVCAR-3): 108.9%; Growth Percent (MDA-MB-435): 100.8% and 100.85%; Growth Percent (HCT-15): 99.0% and 99.06%; Growth Percent (SK-MEL-2): 116.4% and 116.43%; Growth Percent (U251): 97.1% and 97.12%; Growth Percent (RPMI-8226): 110.5%; Growth Percent (HT29): 104.4% and 104.43%; Growth Percent (A549/ATCC): 96.2% and 96.21%
